Measured values reported in US12036224B2, “Formulations, methods, kits, and dosage forms for treating atopic dermatitis and for improved stability of an active pharmaceutical ingredient” (Libertas Bio, Inc., priority 2017, dated 2024).
In brackets after ≈: the same amount, converted by molar mass. Entries after “also recorded” stand apart in the source; their conditions may differ.

How the values were obtained:
[1] = system: subjects with moderate-to severe atopic dermatitis; assay: Phase 1b study in atopic dermatitis: safety and tolerability; type: in vivo, human
Experimental: (§1) The study conducted was a randomized, double-blind, placebo-controlled, multicenter, sequential dose escalation study in subjects with moderate-to severe atopic dermatitis. The study included a screening period (up to 30 days) and a treatment period for 4 weeks with a 14 day follow up period that concluded with an end-of-study visit. Three sequential cohorts of 20, 40 and 80 mg QD were evaluated. At each dose level a total of 12 subjects were enrolled with 9 subjects receiving Compound 1, and 3 subjects receiving matching placebos.
Assessment of safety: Safety was assessed by AEs, vital signs, 12-lead ECG, physical examination, and laboratory safety assessments.

JAK = assay: Pre-clinical kinase inhibition, JAK; type: biochemical; conditions: pre-clinical studies
Description: (§2) A formulation of the disclosure comprising 2-(1-(4-((4-(4-hydroxypiperidin-1-yl)phenyl)amino)-5-oxo-5,6-dihydropyrimido[4,5-d]pyridazin-2-yl)piperidin-4-yl)acetonitrile comprises a potent inhibitor of Spleen Tyrosine Kinase (SYK) and Janus Kinases (JAK).

[2] = system: IL-17-SYK mediated CCL20 release, human keratinocytes; assay: Inhibition of IL17 mediated CCL20 release in keratinocytes; type: cell-based; conditions: single donor, n=3
Experimental: In FIG. 12, each bar represents mean and SEM for 3 replicates (n=3) of a single donor. FIG. 13 is a graph showing average weekly change in pruritus (NRS) for a placebo, and Compound 1 in the doses of 20 mg, 40 mg and 80 mg.

[3] = system: subjects with moderate-to severe atopic dermatitis; assay: Phase 1b study in atopic dermatitis: efficacy (EASI, IGA, pruritus NRS); type: in vivo, human; conditions: for EASI50 / EASI75: once daily, after 4 weeks; for average decrease in EASI / average decrease in Pruritis (Itch) Numeric Rating Scale (NRS): week 4
Experimental: as §1
Upon signing the informed consent, the each subject underwent screening assessments from Day −30 to Day −1 prior to study drug administration. On Day 1 (baseline), eligible subjects were randomized, subjected to the Day 1/baseline assessments and received Compound 1 at 20, 40 or 80 mg or placebo, dependent on cohort and randomization schedule. At this visit, PK/PD samples were collected at predose and up to 8 hours (or up to 12 hours at selected sites). Subjects were monitored in clinic for 2 hours following the first study drug administration. Subjects returned to the clinic on Day 2 for PK and PD samples (24 hours post dose).
Pre-dose PK and PD samples were collected on Days 8 and 29 (last day of treatment). On Day 15, PK/PD samples were also collected at pre-dose and up to 8 hours post-dose and subjects returned on Day 16 for PK and PD samples (24 hours post dose). Subjects came in for additional safety assessments on Days 8, 22 and 29, as well as at the end of the follow up period (Day 43). Disease assessments were conducted on Days 1, Day 15 and Day 29.
Compound 1 was administered orally at doses of 20, 40 and 80 mg qd. Compound 1 was made available in 5-mg, 20-mg, and 50-mg strength tablets.
Assessment of efficacy variables: Preliminary efficacy was assessed by changes in the following assessments between Day 1 (baseline) and Days 15 and 29: IGA, EASI, 5-D Pruritus scale, Pruritus Numeric Rating Scale, % BSA involvement of AD, and skin microbiome analysis
The IGA is an assessment scale used in clinical studies to determine severity of AD and clinical response to treatment based on a 5-point scale ranging from 0 (clear) to 4 (severe) (18). The IGA score was assessed at screening, day 1/baseline (pre-dose), and days 15, 29, 43 or early termination.
The Pruritus NRS is a single-question assessment tool that is used to assess the patient's worst itch as a result of AD in the […]. Subjects complete the patient recorded outcome once daily. Patient compliance on the pruritus NRS is followed at each clinic visit. Subjects were instructed on daily reporting at the Baseline visit and are queried for compliance at every clinic visit. Subjects completed the rating scale daily through the last study visit using the scale provided below.
The Eczema Area and Severity Index (EASI) is a validated measure used in clinical practice and clinical trials to assess the severity and extent of AD. Four AD disease characteristics are assessed for severity by the investigator or designee on a scale of “0” (None) through “3” (severe). In addition, the area of AD involvement is assessed as a percentage by body area of head, trunk, upper and lower extremities and converted to a score of 0 to 6. Subjects were subjected to this assessment at the following visits: screening, day 1/baseline (pre-dose), and days 15, 29, 43 or early termination.
Methods: Patients were randomized 1:3 placebo or Compound 1 at 20, 40 or 80 mg once daily for 4 weeks (n=36). Inclusion criteria were Eczema Area and Severity Index (EASI) ≥16, body surface area (BSA) involvement ≥10% and an Investigator's Global Assessment (IGA) of ≥3 at baseline visit. Study objectives included safety/tolerability, efficacy and pharmacokinetic measurements. No concomitant administration of topical corticosteroids or other immunosuppressants was permitted during or prior to study.

[4] = system: rodent xenograft models of NHL and other hematologic malignancies; assay: Rodent xenograft models of NHL and other hematologic malignancies; type: in vivo
Description: as §2

[5] = HCl pH dependent solubility profile study; type: physicochemical; conditions: thermodynamic from solid
Description: Analytical studies for 2-(1-(4-((4-(4-hydroxypiperidin-1-yl)phenyl)amino)-5-oxo-5,6-dihydropyrimido[4,5-d]pyridazin-2-yl)piperidin-4-yl)acetonitrile are provided below in Tables 1-3: Table 1 provides the results of an HCl pH dependent solubility profile study, Table 2 provides the results of an HCl solubility profile in organic solvents, and Table 3 provides the results of an HCl stress study.

[6] = Day 1 to Day 29, 20, 40 and 80 mg

Which results are given for `N#CCC1CCN(c2nc(Nc3ccc(N4CCC(O)CC4)cc3)c3c(=O)[nH]ncc3n2)CC1` [Compound 1, 2-(1-(4-((4-(4-hydroxypiperidin-1-yl)phenyl)amino)-5-oxo-5,6-dihydropyrimido[4,5-d]pyridazin-2-yl)piperidin-4-yl)acetonitrile]?
changes in chemistry lab parameters ([1]; in vivo): No clinically significant changes in chemistry lab parameters except asymptomatic, mild-to-moderate transient elevations of CPK; changes in hematologic lab parameters including platelets, neutrophils and lymphocytes ([1]; in vivo): No clinically significant changes; changes in lipid profile ([1]; in vivo): No changes in lipid profile; serious infections or thromboembolic events ([1]; in vivo): No serious infections or thromboembolic events occurred; tolerability ([1]; patients with moderate to severe atopic dermatitis, 20, 40, 80 mg once daily): well tolerated; also recorded: very well tolerated at all dose levels; most common adverse events ([1]; predominantly Day 1): transient, mild headache and nausea; IC50 against JAK (JAK): low nM; inhibition of IL-17-SYK mediated CCL20 release [2]: inhibits IL-17-SYK mediated CCL20 release, from human keratinocytes, at levels similar to IL17 neutralizing antibodies; EASI50 ([3]; 20 mg cohort): 29%; EASI75 ([3]; 20 mg cohort): 0%; average decrease in EASI ([3]; 20 mg cohort): 21%; average decrease in Pruritis (Itch) Numeric Rating Scale (NRS) ([3]; 20 mg cohort): 15%; EASI50 ([3]; 40 mg cohort): 100%; EASI75 ([3]; 40 mg cohort): 63%; average decrease in EASI ([3]; 40 mg cohort): 79%; average decrease in Pruritis (Itch) Numeric Rating Scale (NRS) ([3]; 40 mg cohort): 47%; reduction in itch ([3]; 80 mg cohort, Day 2): ~45%; EASI50 ([3]; 80 mg cohort): 88%; EASI75 ([3]; 80 mg cohort): 50%; average decrease in EASI ([3]; 80 mg cohort): 70%; average decrease in Pruritis (Itch) Numeric Rating Scale (NRS) ([3]; 80 mg cohort): 71%; overall efficacy in moderate to severe AD (in words) ([3]; 4 weeks): clear efficacy; also recorded: robust activity in EASI after 4 weeks; change in pruritus / patient reported itch (in words) ([3]; 20, 40 and 80 mg once daily): early decrease in pruritis; also recorded: significant reduction in patient reported itch was observed as early as 2nd day of treatment; also recorded: early improvements in pruritus; IGA assessments, subjects reaching 0-1 ([3]; 40 and 80 mg cohorts): up to 38%; subjects reached EASI90 [3, 6]: 3 subjects; subjects with 100% clearance [3, 6]: 2 subjects; tumor growth [4]: suppresses tumor growth; solubility ([5]; aqueous buffer, pH 4.5 Acetate Buffer, initial pH 4.50, end pH 4.56): 2.9 µg/mL (≈ 6.3 µM); solubility ([5]; aqueous buffer, pH 5.5 Acetate Buffer, initial pH 5.52, end pH 5.12): 1 µg/mL (≈ 2.17 µM); solubility ([5]; aqueous buffer, pH 6.8 Phosphate Buffer, initial pH 6.80, end pH 6.86): 2.7 µg/mL (≈ 5.86 µM); solubility ([5]; aqueous buffer, pH 7.5 Phosphate Buffer, initial pH 7.55, end pH 6.96): 0.7 µg/mL (≈ 1.52 µM); solubility ([5]; simulated gastric fluid, 0.1N HCl, end pH 1.23): 10800 µg/mL (≈ 23500 µM); solubility ([5]; Water, end pH 2.62): 941 µg/mL (≈ 2040 µM)
